# From US12285433B2, “Diltiazem for use in the treatment of microbial infections” (UNIVERSITE CLAUDE BERNARD LYON 1, priority 2018, dated 2025)
# Assays:
# [1] = tested on: genes encoding the type III interferons IFN-λ1, IFN-λ2 and IFN-λ3; experiment: RNAseq expression of type III interferon genes and response genes, basolateral treatment of reconstituted human respiratory epithelia (MucilAir HAE); format: cell-based; conditions: 90 μM via basolateral pole, 3 days (3 administrations)
# Description: Reconstituted human respiratory epithelia (MucilAir® HAE, Epithelix) maintained in culture at the air-liquid interface according to the instructions of the supplier Epithelix, were treated or not with diltiazem (90 μM) via their culture medium at their basolateral pole. The diltiazem treatment was repeated for 3 consecutive days (3 administrations in total).
# Treated and untreated epithelia were then lysed with 150 μL of RLT buffer (Qiagen). […] Each library was amplified, quantified and indexed with primers provided in the ScriptSeq™ Index PCR Primers Kit (RSBC10948, Epicentre) and sequenced. Sequencing was conducted on an Illumina HiSeq 2500 system with a minimum requirement of 40 million “reads” sequenced per sample.
# The demultiplexing of the data and the conversion of the BCL files resulting from the sequencing into FASTQ files were carried out using Illumina's bcl2fastq tool, in its version 1.8.4. […] A pseudo-alignment of the trimmed reads on the human genome (Homo Sapiens: GRCh38.p11) using the Kallisto software was performed, followed by a statistical analysis using the R 3.3.1 software and the EdgeR 3.14.0 package.
# The differential in gene expression between epithelial cells treated with diltiazem and control epithelial cells was calculated using a linear model with a p-value correction by the Benjamini-Hochberg method. […]
# [2] = tested on: IFIT1, IFIT2, IFIT3, IF127, IFN-λ1, IFN-λ2, IF144L and IFITM1 genes; experiment: RT-qPCR confirmation of induction of 8 genes associated with the type III interferon response; format: cell-based, human; conditions: 90 μM via basolateral pole, 3 days
# [3] = tested on: interferon lambda 1 (IL-29); experiment: ELISA measurement of interferon lambda 1 (IL-29) secretion by reconstituted human respiratory epithelia; format: cell-based; conditions: ELISA after 72 h; 90 μM via basolateral pole, 3 administrations
# Description: Reconstituted human respiratory epithelia (MucilAir® HAE, Epithelix) were maintained in culture at the air-liquid interface according to the instructions of the supplier Epithelix and were treated or not with diltiazem (90 μM) via their culture medium at their basolateral pole. The diltiazem treatment was repeated for 3 consecutive days (3 administrations in total).
# Secretion levels (pg/mL) of interferon lambda 1 (IL-29) at the apical and basolateral poles of human respiratory epithelia treated and untreated with diltiazem were measured by ELISA after 72 h of treatment according to the supplier's instructions (#3570-1H, Mabtech, Stockholm, Sweden).
# [4] = tested on: respiratory syncytial virus (Long strain, ATCC VR-26); experiment: RSV replication in infected reconstituted human respiratory epithelia (RT-qPCR, F gene); format: cell-based; conditions: MOI 1; 90 μM basolateral, 4 administrations from 5 hpi; 6 days post-infection
# Description: Reconstituted human respiratory epithelia (MucilAir® HAE, Epithelix) were maintained in culture at the air-liquid interface according to the instructions of the supplier Epithelix and were infected with respiratory syncytial virus (Long strain, ATCC VR-26) at a multiplicity of infection (MOI) 1, then treated or not with diltiazem (90 μM) via their culture medium at their basolateral pole. Diltiazem treatment was performed at 5 hours post-infection and then repeated for 3 consecutive days (4 administrations in total).
# At 6 days post-infection, samples at the apical pole of treated and untreated infected epithelia, as well as the epithelia themselves, were lysed with 150 μL of RLT buffer (Qiagen). The process of the experiment is schematically represented in FIG. 4A.
# Total RNA was extracted using the RNeasy Kit (Qiagen), according to the supplier's instructions, for quantification of viral genome copy number (F gene) by RT-qPCR at the apical pole, i.e. in the supernatant (FIG. 4B), as well as in the epithelia (FIG. 4C).
# [5] = tested on: respiratory syncytial virus (RSV); experiment: RSV challenge infection in BALB/c mouse model, pulmonary viral titers by RT-qPCR (F gene); format: in vivo; conditions: BALB/c mice, 5×10^5 PFU RSV intranasally; 50 mg/kg per os, 5 treatments; day 5 post-infection
# Description: FIG. 4D schematically represents the chronology of infection and treatment of the mice: • BALB/c mice were randomized into 3 groups of 5 individuals and then infected intranasally with 50 μL of a viral suspension containing 5×10^5 PFU of RSV (Day 0). Six hours before infection, the mice were treated with either 40 mg/kg intraperitoneal ribavirin (RSV RIB) or 50 mg/kg diltiazem peros (RSV DIL), or PBS (RSV PBS) as negative control. • The same treatments were repeated every 24 h, with a total of 3 treatments for ribavirin and 5 treatments for diltiazem or PBS. • On day 5 post-infection (D5, corresponding to the peak of viral replication), the mice in each group were euthanized and their lungs were aseptically recovered to measure their pulmonary viral titers by RTqPCR (F gene).
# RT-qPCR quantification of the RSV viral genome copy number (quantifying the copies of the F gene) relative to the total amount of RNA extracted from the lungs at 5 days post-infection was performed, and the results are presented in FIG. 4E.
# The following statistical tests were used: One-way ANOVA with Bonferroni post-test to compare each virus to the mock condition (PBS treatment). *p<0.05.
# [6] = tested on: human parainfluenza virus type 3 (strain C243 ATCC VR-93); experiment: hPIV-3 replication in reconstituted human respiratory epithelia (cytopathic effect, TEER, TCID50 titration in LLC-MK2 cells); format: cell-based; conditions: MOI 0.1, 90 μM basolateral daily
# Description: Reconstituted human respiratory epithelia were infected with human parainfluenza virus type 3 (strain C243 ATCC VR-93) at an MOI of 0.1, and treatment of the basolateral medium with 90 μM diltiazem was started 2 hours post-infection and continued daily for 4 consecutive days. Transepithelial electrical resistance (TEER), which reflects the integrity of the epithelium, was measured once daily from 48 h post-infection to 120 hours post-infection.
# Apical infectious viral titers (TCID50/mL) were determined in LLC-MK2 cells from washings collected starting 48 h post-infection (hpi), and up to 120 hpi, as shown in FIG. 5A.
# [7] = tested on: recombinant hMPV-GFP virus (strain C-85473); experiment: hMPV replication in reconstituted human respiratory epithelia (GFP epifluorescence, RT-qPCR of N gene); format: cell-based, human metapneumovirus; conditions: MOI 0.1
# Description: Viral replication in reconstituted human epithelial models (MucilAir® HAE, Epithelix) of nasal origin was studied on epithelia treated or not treated with diltiazem. To that end, (i) fluorescence light microscopy photos were used to evaluate the efficacy and progression of the infection and (ii) quantification of the viral genome by RTqPCR was performed, on the one hand at the apical pole of the epithelium (surface harvesting) to quantify the excretion of viral progeny, and on the other hand in the total lysates of epithelial cells at end point (day 5 post-infection) to quantify intracellular viral replication within the epithelium.
# Human respiratory epithelia (Mucilair, Epithelix) were infected with a recombinant hMPV-GFP virus (strain C-85473) at an MOI of 0.1, then treated (via the basolateral medium of the epithelia) or not with 3 successive doses of diltiazem at 90 μM at D0, D1 and D3 post-infection (3 epithelia per condition).
# Epifluorescence microscopy observations were performed on D4 post-infection to observe the impact of diltiazem treatment on viral replication (FIG. 7B).
# On day 3 post-infection, a wash at the apical pole of the infected epithelium, treated or not, was performed in order to harvest the viral progeny produced. The genomic viral RNA was extracted and quantified by RT-qPCR (Biosystems™ PowerUp™ SYBR™ Green, Thermo Fisher Scientific) using a plasmid containing the HMPV N gene. The results are expressed in copies of the N gene/μg RNA extracted (FIG. 7C).
# On day 5 post-infection, epithelial cells were harvested and lysed to extract total RNA. Total RNAs corresponding to the hMPV N viral gene were quantified by Rt-qPCR (Biosystems™ PowerUp™ SYBR™ Green, Thermo Fisher Scientific), using a range made from a plasmid containing the HMPV N gene. The results are expressed in copies of the N gene/μg RNA extracted (FIG. 7D).
# IFN-λ2 (IFNL2) gene = experiment: In vivo induction of IFN-λ2 (IFNL2) gene expression after intranasal instillation in BALB/c mice (RT-qPCR); conditions: 20 mg/kg intranasal, D0/D1/D2 or D0/D2/D4, sampled D5
compound,measurement,setting,value
COc1ccc([C@@H]2Sc3ccccc3N(CCN(C)C)C(=O)[C@@H]2OC(C)=O)cc1 [diltiazem],"expression of type III interferon response genes (IF144L, IFIT1, IFIT2, IFIT3, IFITM1, ISG15, MX1, MX2, OAS1, OAS2, OAS3, OASL, RSAD2, STAT1)",[1],significantly stimulates the expression
same,"expression of the IFIT1, IFIT2, IFIT3, IF127, IFN-λ1, IFN-λ2, IF144L and IFITM1 genes compared with untreated epithelia",[2],significant increase
same,IFN-λ1 (IL-29) secretion at the apical pole,[3],very sharply increased
same,IFN-λ1 (IL-29) secretion at the basolateral pole,[3],"significant, but less marked, increase"
same,amount of RSV viral genome (F gene) in the culture supernatant (apical pole) compared with untreated epithelia,[4],much lower
same,amount of RSV viral genome (F gene) in the epithelium compared with untreated epithelia,[4],much lower
same,"pulmonary viral titers (RSV F gene copies, RT-qPCR) compared with PBS control group and ribavirin-treated group",[5],significantly reduced pulmonary viral titers
same,"transepithelial electrical resistance (TEER), integrity of the epithelium",[6]; 48 to 120 hpi,integrity appears to be more preserved
same,cytopathic effects induced by hPIV-3 (microscopy),[6]; 96 and 120 hpi,"greater and easily visible microscopically in untreated reconstituted human respiratory epithelia, unlike those treated with diltiazem"
same,infectious viral titer at the apical surface at 96 h post-infection,[6]; untreated 10^7,10^5 TCID50/mL
same,fluorescence corresponding to viral expression of GFP (epifluorescence microscopy),"[7]; 90 μM basolateral at D0, D1, D3, D4 post-infection",very few fluorescent cells
same,reduction of viral genome (N gene) in epithelia (total lysate) versus untreated epithelia,"[7]; 90 μM basolateral at D0, D1, D3, day 5 post-infection",4 log 10
same,reduction of viral genome (N gene) in apical supernatants versus untreated epithelia,"[7]; 90 μM basolateral, day 3 post-infection",2 log 10
same,IFN-λ2 (IFNL2) gene expression in nasal cavities relative to mock-treated mice,IFN-λ2 (IFNL2) gene,activates the IFN III pathway
